Structures can show the parent of a compound that is named as a salt.

Assay [1] has as its target T1, Adrenergic β2 (Homo sapiens, UniProt P07550).
T1 construct: endogenous in cells; host or cells: H292 cells
Nature of the assay: Alternative adrenergic β2 mediated cAMP production in H292 cells (AlphaScreen cAMP detection). The class given is cell-based. As to conditions: for EC50: cAMP, test compounds incubated 60 minutes at room temperature, 300 μM rolipram, read-out: β2 pEC50 (converted); for β2 Int Act: fraction relative to the maximum activity determined for formoterol, 60 minutes incubation. As to the method: Alternative Adrenergic β2 Mediated cAMP Production Cell Preparation
H292 cells were grown in 225 cm2 flasks incubator at 37° C., 5% CO2 in RPMI medium containing, 10% (v/v) FBS (foetal bovine serum) and 2 mM L-glutamine.
Adherent H292 cells were removed from tissue culture flasks by treatment with Accutase™ cell detachment solution for 15 minutes. Flasks were incubated for 15 minutes in a humidified incubator at 37° C., 5% CO2. Detached cells were re-suspended in RPMI media (containing 10% (v/v) FBS and 2 mM L-glutamine) at 0.05×10^6 cells per mL. 5000 cells in 100 μL were added to each well of a tissue-culture-treated 96-well plate and the cells incubated overnight in a humidified incubator at 37° C., 5% CO2. The culture media was removed and cells were washed twice with 100 μL assay buffer and replaced with 50 μL assay buffer (HBSS solution containing 10 mM HEPES pH7.4 and 5 mM glucose). Cells were rested at room temperature for 20 minutes after which time 25 μL of rolipram (1.2 mM made up in assay buffer containing 2.4% (v/v) dimethylsulphoxide) was added. Cells were incubated with rolipram for 10 minutes after which time test compounds were added and the cells were incubated for 60 minutes at room temperature. The final rolipram concentration in the assay was 300 μM and final vehicle concentration was 1.6% (v/v) dimethylsulphoxide. The reaction was stopped by removing supernatants, washing once with 100 μL assay buffer and replacing with 50 μL lysis buffer. The cell monolayer was frozen at −80° C. for 30 minutes (or overnight).
AlphaScreen™ cAMP Detection
The concentration of cAMP (cyclic adenosine monophosphate) in the cell lysate was determined using AlphaScreen™ methodology. The frozen cell plate was thawed for 20 minutes on a plate shaker then 10 μL of the cell lysate was transferred to a 96-well white plate. 40 μL of mixed AlphaScreen™ detection beads pre-incubated with biotinylated cAMP, was added to each well and the plate incubated at room temperature for 10 hours in the dark. The AlphaScreen™ signal was measured using an EnVision spectrophotometer (Perkin-Elmer Inc.) with the recommended manufacturer's settings. cAMP concentrations were determined by reference to a calibration curve determined in the same experiment using standard cAMP concentrations. Concentration response curves for agonists were constructed and data was fitted to a four parameter logistic equation to determine both the pEC50 and Intrinsic Activity. Intrinsic Activity was expressed as a fraction relative to the maximum activity determined for formoterol in each experiment.

Assay [2] has as its target T2, recombinant human α1D receptor (Homo sapiens, UniProt P25100).
T2 construct: made in house; host or cells: HEK293 cells (membranes)
T2 sequence (P25100 1-572): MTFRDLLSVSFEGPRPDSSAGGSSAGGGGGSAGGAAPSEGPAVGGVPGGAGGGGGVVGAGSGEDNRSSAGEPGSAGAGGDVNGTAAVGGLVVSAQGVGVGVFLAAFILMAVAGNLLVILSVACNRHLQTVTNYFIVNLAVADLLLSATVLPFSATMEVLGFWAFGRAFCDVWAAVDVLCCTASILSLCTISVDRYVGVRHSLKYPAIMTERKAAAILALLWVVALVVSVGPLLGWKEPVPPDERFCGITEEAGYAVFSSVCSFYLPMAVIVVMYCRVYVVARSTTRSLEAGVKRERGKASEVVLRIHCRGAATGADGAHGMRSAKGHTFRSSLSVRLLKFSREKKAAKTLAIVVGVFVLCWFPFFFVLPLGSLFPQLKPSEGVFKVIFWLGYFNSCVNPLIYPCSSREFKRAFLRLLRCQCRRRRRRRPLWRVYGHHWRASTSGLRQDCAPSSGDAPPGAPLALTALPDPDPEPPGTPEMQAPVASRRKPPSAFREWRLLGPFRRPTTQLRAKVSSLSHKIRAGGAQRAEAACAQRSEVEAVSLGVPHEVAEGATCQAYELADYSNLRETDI
Nature of the assay: Adrenergic α1D selectivity assay, inhibition of [3H]-prazosin binding to membranes. The note with it: HEK293 membranes, [3H]-prazosin 0.3 nM; read-out: α1 bind pIC50 (converted). As to the method: Membranes were prepared from human embryonic kidney 293 (HEK293) cells expressing recombinant human α1D receptor. These were diluted in Assay Buffer (50 mM HEPES, 1 mM EDTA, 0.1% gelatin, pH 7.4) to provide a final concentration of membranes that gave a clear window between maximum and minimum specific binding.
Assays were performed in U-bottomed 96-well polypropylene plates. 10 μL [^3H]-prazosin (0.3 nM final concentration) and 10 μL of test compound (10× final concentration) were added to each test well. For each assay plate 8 replicates were obtained for [^3H]-prazosin binding in the presence of 10 μL vehicle (10% (v/v) DMSO in Assay Buffer; defining maximum binding) or 10 μL BMY7378 (10 μM final concentration; defining non-specific binding (NSB)). Membranes were then added to achieve a final volume of 100 μL. The plates were incubated for 2 hours at room temperature and then filtered onto PEI coated GF/B filter plates, pre-soaked for 1 hour in Assay Buffer, using a 96-well plate Tomtec cell harvester. Five washes with 250 μL wash buffer (50 mM HEPES, 1 mM EDTA, pH 7.4) were performed at 4° C. to remove unbound radioactivity. The plates were dried then sealed from underneath using Packard plate sealers and MicroScint-O (50 μL) was added to each well. The plates were sealed (TopSeal A) and filter-bound radioactivity was measured with a scintillation counter (TopCount, Packard BioScience) using a 3-minute counting protocol.
Total specific binding (B0) was determined by subtracting the mean NSB from the mean maximum binding. NSB values were also subtracted from values from all other wells. […] Data was fitted to a four parameter logistic equation to determine the compound potency, which was expressed as pIC50 (negative log molar concentration inducing 50% inhibition of [^3H]-prazosin binding).

The target of assay [3] is T3, recombinant human Dopamine Subtype D2s receptors (Homo sapiens, UniProt P14416).
T3 construct: purchased Perkin Elmer
Nature of the assay: Dopamine D2 selectivity assay, inhibition of [3H]-spiperone binding to membranes. The note with it: [3H]-spiperone 0.16 nM; read-out: D2 bind pIC50 (converted). As to the method:
Membranes containing recombinant human Dopamine Subtype D2s receptors were obtained from Perkin Elmer. These were diluted in Assay Buffer (50 mM HEPES, 1 mM EDTA, 120 mM NaCl, 0.1% gelatin, pH 7.4) to provide a final concentration of membranes that gave a clear window between maximum and minimum specific binding.
Assays were performed in U-bottomed 96-well polypropylene plates. 30 μL [^3H]-spiperone (0.16 nM final concentration) and 30 μL of test compound (10× final concentration) were added to each test well. For each assay plate 8 replicates were obtained for [^3H]-spiperone binding in the presence of 30 μL vehicle (10% (v/v) DMSO in Assay Buffer; defining maximum binding) or 30 μL Haloperidol (10 μM final concentration; defining non-specific binding (NSB)). Membranes were then added to achieve a final volume of 300 μL. The plates were incubated for 2 hours at room temperature and then filtered onto PEI coated GF/B filter plates, pre-soaked for 1 hour in Assay Buffer, using a 96-well plate Tomtec cell harvester. Five washes with 250 μL wash buffer (50 mM HEPES, 1 mM EDTA, 120 mM NaCl, pH 7.4) were performed at 4° C. to remove unbound radioactivity. The plates were dried then sealed from underneath using Packard plate sealers and MicroScint-O (50 μL) was added to each well. The plates were sealed (TopSeal A) and filter-bound radioactivity was measured with a scintillation counter (TopCount, Packard BioScience) using a 3-minute counting protocol.
Total specific binding (B0) was determined by subtracting the mean NSB from the mean maximum binding. NSB values were also subtracted from values from all other wells. […] Data was fitted to a four parameter logistic equation to determine the compound potency, which was expressed as pIC50 (negative log molar concentration inducing 50% inhibition of [^3H]-spiperone binding).

T1 sequence (P07550 whole entry): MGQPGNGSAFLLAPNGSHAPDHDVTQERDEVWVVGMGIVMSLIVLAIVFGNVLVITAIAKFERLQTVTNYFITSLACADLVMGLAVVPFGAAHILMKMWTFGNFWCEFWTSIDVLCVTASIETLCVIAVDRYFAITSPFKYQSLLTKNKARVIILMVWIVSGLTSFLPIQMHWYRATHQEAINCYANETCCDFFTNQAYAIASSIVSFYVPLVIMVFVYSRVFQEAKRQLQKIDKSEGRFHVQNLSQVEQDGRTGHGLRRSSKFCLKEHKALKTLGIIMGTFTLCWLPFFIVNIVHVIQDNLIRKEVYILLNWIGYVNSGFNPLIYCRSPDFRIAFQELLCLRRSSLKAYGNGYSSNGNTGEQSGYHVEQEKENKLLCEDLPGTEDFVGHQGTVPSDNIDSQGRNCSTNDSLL
T3 sequence (P14416 1-414 isoform P14416-2): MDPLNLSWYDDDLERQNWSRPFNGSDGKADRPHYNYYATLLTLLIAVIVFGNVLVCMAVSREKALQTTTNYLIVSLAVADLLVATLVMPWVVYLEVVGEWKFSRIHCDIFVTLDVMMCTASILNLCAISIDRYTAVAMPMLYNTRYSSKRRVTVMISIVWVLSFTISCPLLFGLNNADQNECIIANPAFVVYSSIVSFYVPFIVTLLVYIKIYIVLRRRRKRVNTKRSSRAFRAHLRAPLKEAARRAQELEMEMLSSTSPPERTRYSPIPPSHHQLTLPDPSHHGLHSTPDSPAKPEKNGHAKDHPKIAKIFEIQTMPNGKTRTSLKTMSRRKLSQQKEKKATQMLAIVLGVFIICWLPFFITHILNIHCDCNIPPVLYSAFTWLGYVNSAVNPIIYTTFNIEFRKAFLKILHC

In the case of `CCN(CC)CCN(CCNCCc1ccc(O)c2[nH]c(=O)sc12)C(=O)CCOCCc1ccccc1C(F)(F)F` [Example 17, N-[2-(Diethylamino)ethyl]-N-(2-{[2-(4-hydroxy-2-oxo-2,3-dihydro-1,3-benzothiazol-7-yl)ethyl]amino}ethyl)-3-{2-[2-(trifluoromethyl)phenyl]ethoxy}propanamide ditrifluoroacetate], in assay [1], the EC50 was 25.1 nM and the “β2 Int Act” value is 0.9. The IC50 in assay [2] was 794 nM.

`CCN(CC)CCN(CCNCCc1ccc(O)c2[nH]c(=O)sc12)C(=O)CCOCCc1cccc(Cl)c1` [Example 18, 3-[2-(3-Chlorophenyl)ethoxy]-N-[2-(diethylamino)ethyl]-N-(2-{[2-(4-hydroxy-2-oxo-2,3-dihydro-1,3-benzothiazol-7-yl)ethyl]amino}ethyl)propanamide ditrifluoroacetate]: in assay [1], the EC50 is 5.01 nM and the “β2 Int Act” value turned out to be 0.7. The IC50 in assay [2] is 794 nM. The IC50 in assay [3] is 2510 nM.

With `CCN(CC)CCN(CCNCCc1ccc(O)c2[nH]c(=O)sc12)C(=O)CCOCCc1cccc(Cl)c1Cl` [Example 20, 3-[2-(2,3-Dichlorophenyl)ethoxy]-N-(2-diethylaminoethyl)-N-(2-{[2-(4-hydroxy-2-oxo-2,3-dihydro-1,3-benzothiazol-7-yl)ethyl]amino}ethyl)propanamide ditrifluoroacetate], in assay [1], the EC50 is 10 nM and the “β2 Int Act” value came to 0.6. Further, the IC50 in assay [2] is 398 nM. Besides, the IC50 in assay [3] was 1580 nM.

Turning to `CCN(CC)CCN(CCNCCc1ccc(O)c2[nH]c(=O)sc12)C(=O)CCOCCc1cccc(F)c1` [Example 22, N-(2-Diethylaminoethyl)-3-[2-(3-fluorophenyl)ethoxy]-N-{2-[2-(4-hydroxy-2-oxo-2,3-dihydro-1,3-benzothiazol-7-yl)ethylamino]ethyl}propanamide dihydrobromide], in assay [1], the EC50 was 7.94 nM and the “β2 Int Act” value is 0.8. Besides, the IC50 in assay [2] was 1260 nM. For the same compound, the IC50 in assay [3] was 5010 nM.

For the compound `CCN(CC)CCN(CCNCCc1ccc(O)c2[nH]c(=O)sc12)C(=O)CCOCCc1ccc(Cl)c(Cl)c1` [Example 27, 3-[2-(3,4-Dichlorophenyl)ethoxy]-N-(2-diethylaminoethyl)-N-{2-[2-(4-hydroxy-2-oxo-2,3-dihydro-1,3-benzothiazol-7-yl)ethylamino]ethyl}propanamide dihydrobromide], in assay [1], the EC50 was 31.6 nM and the “β2 Int Act” value is listed as 0.6. In addition, in assay [2], the IC50 was 1000 nM. In addition, the IC50 in assay [3] is 3160 nM.

Regarding `CCN(CC)CCN(CCNCCc1ccc(O)c2[nH]c(=O)sc12)C(=O)CCOCCc1cccc(O)c1` [Example 29, N-(2-Diethylaminoethyl)-N-{2-[2-(4-hydroxy-2-oxo-2,3-dihydro-1,3-benzothiazol-7-yl)ethylamino]ethyl}-3-[2-(3-hydroxyphenyl)ethoxy]propanamide dihydrobromide], in assay [1], the EC50 was 6.31 nM and the “β2 Int Act” value worked out at 0.8. Also, the IC50 in assay [2] was 1260 nM. Moreover, the IC50 in assay [3] was 251 nM.

Take `CCN(CC)CCN(CCNCCc1ccc(O)c2[nH]c(=O)sc12)C(=O)CCOCCc1ccccc1Cl` [Example 31, 3-[2-(2-Chlorophenyl)ethoxy]-N-(2-diethylaminoethyl)-N-{2-[2-(4-hydroxy-2-oxo-2,3-dihydro-1,3-benzothiazol-7-yl)ethylamino]ethyl}propanamide ditrifluoroacetate]: in assay [1], the EC50 is 20 nM. Besides, the “β2 Int Act” value in assay [1] was determined as 0.9. For the same compound, the IC50 in assay [2] is 251 nM; in assay [3], 5010 nM.

For `CCN(CC)CCN(CCNCCc1ccc(O)c2[nH]c(=O)sc12)C(=O)CCOCCc1ccc2ccccc2c1` [Example 32, N-[2-(Diethylamino)ethyl]-N-(2-{[2-(4-hydroxy-2-oxo-2,3-dihydro-1,3-benzothiazol-7-yl)ethyl]amino}ethyl)-3-[2-(2-naphthyl)ethoxy]propanamide], in assay [1], the EC50 was 10 nM and the “β2 Int Act” value was 0.5. Moreover, the IC50 in assay [2] is 631 nM. In assay [3], the IC50 was 794 nM.

For the origin of these results see patent US7709511B2, “Benzothiazolone derivatives” (AstraZeneca AB, priority 2005, dated 2010).
